Data as given in the NIST ThermoML archive (doi:10.1016/j.jct.2012.11.011).

Experiment: xn = mol fraction of the nth substance listed
Settings: Liquid, Vibrating tube method

CCOC(=O)OCC [diethyl carbonate] + CCCCCCCC
mass density [kg/m3]
Settings | x1 = 0.0522 | x1 = 0.1042 | x1 = 0.1671 | x1 = 0.322 | x1 = 0.3657 | x1 = 0.5075 | x1 = 0.6922 | x1 = 0.8002 | x1 = 0.9206 | x1 = 0.9459
288.15 K, 100 kPa | 716 | 726.1 | 738.6 | 772.6 | 784 | 820.5 | 874.2 | 908.5 | 951 | 959.8
288.15 K, 5000 kPa | 720.1 | 730.4 | 742.8 | 778.1 | 788.4 | 824.9 | 879.4 | 912.8 | 954.9 | 964.3
288.15 K, 10000 kPa | 723.9 | 734.4 | 746.8 | 782.1 | 792.6 | 829 | 883.7 | 917 | 958.8 | 968.6
288.15 K, 20000 kPa | 731.2 | 741.6 | 754.1 | 789.6 | 800.1 | 836.8 | 891.6 | 925 | 966.5 | 976.3
288.15 K, 30000 kPa | 737.8 | 748.2 | 760.7 | 796.5 | 807.1 | 843.9 | 898.5 | 932.1 | 973.8 | 983.3
288.15 K, 40000 kPa | 744 | 754.5 | 767.2 | 803.1 | 813.7 | 850.5 | 907.6 | 939 | 980.7 | 990.3
298.15 K, 100 kPa | 707.7 | 717.7 | 729.9 | 764.5 | 774.7 | 810.7 | 864.7 | 897.7 | 939.2 | 949.3
298.15 K, 5000 kPa | 712.5 | 722.5 | 734.7 | 769.5 | 779.7 | 815.8 | 869.8 | 902.8 | 944.2 | 953.8
298.15 K, 10000 kPa | 716.3 | 726.3 | 738.5 | 773.4 | 783.7 | 819.8 | 873.8 | 906.9 | 948.2 | 957.7
298.15 K, 20000 kPa | 723.9 | 734 | 746.3 | 781.4 | 791.8 | 828.1 | 882 | 915.2 | 956.4 | 965.9
298.15 K, 30000 kPa | 730.8 | 741 | 753.4 | 788.8 | 799.1 | 835.6 | 889.8 | 922.8 | 964 | 973.6
298.15 K, 40000 kPa | 737.2 | 747.4 | 759.9 | 795.5 | 805.9 | 842.4 | 896.9 | 929.9 | 971.1 | 980.7
308.15 K, 100 kPa | 699.6 | 709.3 | 721.2 | 755.4 | 765.4 | 801 | 854.3 | 887.1 | 928 | 937.6
308.15 K, 5000 kPa | 704.2 | 714 | 725.9 | 760.4 | 770.4 | 805.9 | 859.3 | 892 | 932.9 | 942.6
308.15 K, 10000 kPa | 708.7 | 718.5 | 730.5 | 765.1 | 775.1 | 810.8 | 864.1 | 896.8 | 937.6 | 947.3
308.15 K, 20000 kPa | 716.6 | 726.5 | 738.7 | 773.3 | 783.6 | 819.4 | 873 | 905.6 | 946.3 | 956
308.15 K, 30000 kPa | 723.8 | 733.9 | 746.2 | 781.1 | 791.2 | 827.2 | 880.9 | 913.7 | 954.3 | 964.1
308.15 K, 40000 kPa | 730.5 | 740.7 | 753 | 788 | 798.3 | 834.6 | 888.3 | 921.2 | 961.9 | 971.5
